Legend:
5-HT2 receptor = target: T1, 5-HT2 receptor (Rattus norvegicus, UniProt P14842); assay: Affinity to 5-HT2 receptor; format: binding
T1 construct: The precipitate was used as the solution of receptor; from tissue; host or cells: rat brain (whole) crude membranes

α1 receptor = assay: Affinity to α1 receptor; set-up: species or system rat; conditions: read-out: Affinity to α1 receptor (MIC50; mole concentration for 50% inhibition of binding); 0.25 nM ^3H-prazocin; 90 min
Experimental: The solution of receptor was prepared as follows. As soon as rats were decapitated, brain was removed and its weight was measured. Its brain was homogenized in ten times volumes of ice-cold 0.35 M sucrose (pH 7.4) by glass homogenizer with teflon pestle which was revolted by motors. Thereafter, the homogenate was centrifuged at 4° C. at 900×g for 10 min and the supernatant was, furthermore, recentrifuged at 4° C. at 22,000×g for 20 min. The precipitate was suspended by addition of 5 mM phosphate buffer solution (pH 7.4). After the suspension was incubated at 37° C. for 30 min, the suspension was recentrifuged at 4° C. at 22,000×g for 20 min. The precipitate was resuspended by addition of 10 ml of 5 mM phosphate buffer solution (pH 8.0). The precipitate was used as the solution of receptor.
^3 H-prazocin was used as a ligand. 0.25 nM ^3 H-prazocin in 5 mM phosphate buffer (pH 8.0), the compound of this invention and the solution of receptor were added in tube and the mixture were incubated at 25° C. for 90 min. In addition, the […] binding was shown by binding value of ^3 H-prazocin under the coexistence with 0.1 μM prazocin. The binding reaction was carried out as follows. After ^3 H-prazocin (binding type: B) bound to receptor using glassfiberfilter (pore size: 0.5 μm, Whatman GF/C.) and free type of prazocin (free type: F) were separated with B/F separator (Brandel, USA), only the binding type of ^3 H-prazocin was collected. The binding type of ^3 H-prazocin absorbed to glass-fiber filter was washed with ice-cold saline solution and was remove to vial. After 10 ml of scintillation cocktail was added in it, the radioactivity was determined. From the binding inhibition rate of α1 receptor and ligand, affinity of the compounds of this invention to α1 receptor was measured.
If affinity of certain compound to a receptor is high, the binding ligand and receptor is inhibited.

D1 receptor = target: T2, D1 receptor (Rattus norvegicus, UniProt P18901); assay: Affinity to D1 receptor; format: binding
T2 construct: The precipitate was used as the solution of receptor; from tissue; host or cells: rat brain (whole) crude membranes

[1] = test system: monoamine release from synaptosomes; assay: Releasing effect of monoamines in synaptosomes of the rat brain; conditions: compound 5×10^-5 M with tyramine 10^-6 M (FIG. 9)
Experimental: Synaptosomes were prepared as follows. Fresh striatum (for determination of dopamine) and fresh forebrain (for determination of noradrenaline and serotonin) were removed from listar rats of 8 weeks old (NIPPON S. L. C.). Ten times volumes of ice-cold 0.35 M sucrose (pH 7.4) were added in the brain tissue and homogenized using glass homogenizer with teflon pestle which was revolted by motors. Thereafter the homogenate was centrifuged at 900×g for 10 min at 4° C. and the supernatant was recentrifuged at 11,500×g for 20 min. The pellet was resuspeded in ice-cold buffer. Final concentration of synaptosomes was prepared to 0.6 mg protein/ml. Protein concentration was determined by method described in Journal of Biological Chemistry, 193, 265-275 (1951) and the bovine serum albumin was used as an authentic standard. The release of monoamine from synaptosomes was determined by the following procedure based on the method described in Journal of Pharmacology and Experimental Therapeutics, 241, 27-33 (1987). The solution of 0.6 mg/ml of synaptosomes was preincubated for 5 min at 35° C. under the oxygenated (95% O2 and 5% CO2) condition. Thereafter 25 nM ^3 H-monoamines were added in synaptosomal solution and the solutions were incubated for 5 min at 35° C. […]

T2 sequence (P18901 whole entry): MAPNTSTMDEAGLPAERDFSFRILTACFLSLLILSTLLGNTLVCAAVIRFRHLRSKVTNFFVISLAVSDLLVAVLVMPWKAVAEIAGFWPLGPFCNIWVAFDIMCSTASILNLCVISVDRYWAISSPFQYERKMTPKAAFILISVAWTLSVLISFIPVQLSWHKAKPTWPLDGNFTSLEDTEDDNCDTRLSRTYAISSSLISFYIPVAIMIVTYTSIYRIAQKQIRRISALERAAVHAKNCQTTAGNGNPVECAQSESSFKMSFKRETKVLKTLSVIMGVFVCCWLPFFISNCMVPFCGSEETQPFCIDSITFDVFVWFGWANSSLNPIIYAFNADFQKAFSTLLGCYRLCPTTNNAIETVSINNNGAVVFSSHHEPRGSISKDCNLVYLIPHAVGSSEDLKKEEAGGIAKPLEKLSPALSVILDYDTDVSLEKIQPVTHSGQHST
T1 sequence (P14842 whole entry): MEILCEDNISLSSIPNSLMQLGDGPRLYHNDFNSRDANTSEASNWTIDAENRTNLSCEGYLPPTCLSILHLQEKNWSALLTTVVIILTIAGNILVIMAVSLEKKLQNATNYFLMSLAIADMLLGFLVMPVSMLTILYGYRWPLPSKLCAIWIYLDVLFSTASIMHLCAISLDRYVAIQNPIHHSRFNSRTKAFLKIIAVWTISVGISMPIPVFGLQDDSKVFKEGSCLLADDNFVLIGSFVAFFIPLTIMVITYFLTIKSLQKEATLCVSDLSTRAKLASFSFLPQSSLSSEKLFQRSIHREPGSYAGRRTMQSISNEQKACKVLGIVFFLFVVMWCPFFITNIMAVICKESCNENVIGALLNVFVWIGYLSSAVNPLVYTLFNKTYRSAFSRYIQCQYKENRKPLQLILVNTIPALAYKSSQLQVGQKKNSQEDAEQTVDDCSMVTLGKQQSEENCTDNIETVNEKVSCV

| Compound | IC50 (5-HT2 receptor) [µM] | IC50 (α1 receptor) [µM] | IC50 (D1 receptor) [µM] | antagonism against the effect of tyramine [1] |
| --- | --- | --- | --- | --- |
| CCCNC(CCC)Cc1c[nH]c2ccccc12.Cl (stereo not shown) [Compound No. 20, 1-(Indol-3-yl)-2-propylaminopentane Hydrochloride] | > 10 | 80 | > 10 | – |
| CCCNC(CCC)Cc1ccc2c(c1)OCO2.Cl (stereo not shown) [Compound No. 27, 1-(1,3-Benzodioxol-5-yl)-2-propylaminopentane Hydrochloride] | – | – | – | Tyramine antagonistic property |

— US6214859A, “Ethylamine derivatives” (Fujimoto Brothers Co., Ltd., priority 1997, dated 2001)
